{
  "source": "patent US20200023003A1",
  "about": "(FENNEC PHARMACEUTICALS INC., priority 2018, published 2020)",
  "key": {"[1]": {"details": "for Cisplatin Concentration: 24° C.", "description": "The method uses a Waters Acquity H-Class HPLC system with an Imtakt Scherzo SW-C18 mixed mode column. The HPLC method conditions are outlined in Table 7. […] This range covers greater than two orders of magnitude at dose-relevant concentrations.\nEach sample was transferred to an HPLC vial and placed in an autosampler chamber held at 24° C. Samples were injected onto the HPLC system approximately every 30 minutes to obtain 4 time-points for each sample. A gradient was run and the retention time and peak area were obtained."}, "[2]": {"test_system": "pediatric patients being treated with platinum based chemotherapeutics", "description": "Reference is made to International Patent Application Publication No. WO 2019/108592, which is a continuation of U.S. patent application Ser. No. 15/826,243, filed on Nov. 29, 2017, both of which are incorporated by reference herein in their entirety."}, "[3]": {"test_system": "pediatric patients being treated with a platinum based chemotherapeutic", "quoted_text": "These adverse events comprise grade 3 or grade 4 neutropenia, reduced glomerular filtration rates, increased serum creatinine, infection, hypomagnesemia, hypernatremia, vomiting, or nausea."}, "[4]": {"details": "animals"}, "[5]": {"details": "cited from earlier work"}, "[6]": {"test_system": "small cell lung cancer cell cultures", "details": "cited from earlier work"}, "[7]": {"experiment": "Dynamic vapor sorption (DVS) isotherm", "details": "for DVS weight loss upon desorption: hysteresis observed"}, "[8]": {"description": "It is a white to off-white crystalline solid, that is soluble in water, but insoluble in alcohol. The aqueous solution is practically neutral with a pH ranging from 6.5 to 9.0. The molecular formula is Na2S2O3. It has a molecular weight of 158.11 g/mol. The structural formula is: […]"}, "[9]": {"details": "thiosulfate:cisplatin 5:1 (n = 2)"}, "[10]": {"details": "thiosulfate:cisplatin 6:1 (n = 2)"}, "[11]": {"details": "thiosulfate:cisplatin 10:1 (n = 2)"}},
  "note": "Values joined by “and” are separate entries in the source; they are usually repeats but may differ in a detail not shown here. Equal values may be shown once. Read-outs that look alike come from different tables or passages of the source.",
  "data": [
    {"compound": "Sodium thiosulfate [STS]", "values": [
      {"measurement": "Half-life (time to reach 333/2 μM cisplatin)", "setting": "[1]; [9]", "result": 3.3, "unit": "h"},
      {"measurement": "Slope (linear regression of cisplatin conc. vs. time)", "setting": "[1]; [9]", "result": "−0.80", "unit": "Cisplatin Area/min"},
      {"measurement": "Cisplatin Concentration", "setting": "[1]; thiosulfate:cisplatin 5:1, 4 min", "result": 323.7, "unit": "µM"},
      {"measurement": "Cisplatin Concentration", "setting": "[1]; thiosulfate:cisplatin 5:1, 37 min", "result": "294.2 µM and 294.0 µM"},
      {"measurement": "Cisplatin Concentration", "setting": "[1]; thiosulfate:cisplatin 5:1, 70 min", "result": "266.8 µM and 268.0 µM"},
      {"measurement": "Cisplatin Concentration", "setting": "[1]; thiosulfate:cisplatin 5:1, 103 min", "result": "243.7 µM and 245.3 µM"},
      {"measurement": "Half-life (time to reach 333/2 μM cisplatin)", "setting": "[1]; [10]", "result": 3.07, "unit": "h"},
      {"measurement": "Slope (linear regression of cisplatin conc. vs. time)", "setting": "[1]; [10]", "result": "−0.87", "unit": "Cisplatin Area/min"},
      {"measurement": "Cisplatin Concentration", "setting": "[1]; thiosulfate:cisplatin 6:1, 5 min", "result": "325.4 µM and 324.5 µM"},
      {"measurement": "Cisplatin Concentration", "setting": "[1]; thiosulfate:cisplatin 6:1, 38 min", "result": "286.4 µM and 293.2 µM"},
      {"measurement": "Cisplatin Concentration", "setting": "[1]; thiosulfate:cisplatin 6:1, 71 min", "result": "259.8 µM and 266.2 µM"},
      {"measurement": "Cisplatin Concentration", "setting": "[1]; thiosulfate:cisplatin 6:1, 104 min", "result": "235.6 µM and 240.5 µM"},
      {"measurement": "Half-life (time to reach 333/2 μM cisplatin)", "setting": "[1]; [11]", "result": 2.27, "unit": "h"},
      {"measurement": "Slope (linear regression of cisplatin conc. vs. time)", "setting": "[1]; [11]", "result": "−1.13", "unit": "Cisplatin Area/min"},
      {"measurement": "Cisplatin Concentration", "setting": "[1]; thiosulfate:cisplatin 10:1, 4 min", "result": 319.5, "unit": "µM"},
      {"measurement": "Cisplatin Concentration", "setting": "[1]; thiosulfate:cisplatin 10:1, 5 min", "result": 320.3, "unit": "µM"},
      {"measurement": "Cisplatin Concentration", "setting": "[1]; thiosulfate:cisplatin 10:1, 37 min", "result": 269.4, "unit": "µM"},
      {"measurement": "Cisplatin Concentration", "setting": "[1]; thiosulfate:cisplatin 10:1, 38 min", "result": 278.5, "unit": "µM"},
      {"measurement": "Cisplatin Concentration", "setting": "[1]; thiosulfate:cisplatin 10:1, 70 min", "result": 235.2, "unit": "µM"},
      {"measurement": "Cisplatin Concentration", "setting": "[1]; thiosulfate:cisplatin 10:1, 71 min", "result": 239.6, "unit": "µM"},
      {"measurement": "Cisplatin Concentration", "setting": "[1]; thiosulfate:cisplatin 10:1, 103 min", "result": 205.6, "unit": "µM"},
      {"measurement": "Cisplatin Concentration", "setting": "[1]; thiosulfate:cisplatin 10:1, 104 min", "result": 209.3, "unit": "µM"},
      {"measurement": "ototoxicity in pediatric patients", "setting": "[2]; STS after a platinum based chemotherapeutic (e.g., cisplatin)", "result": "significantly reduced ototoxicity"},
      {"measurement": "hearing protection", "setting": "[2]; dose equivalent to 5.1 g/m^2 sodium thiosulfate for injection, preliminary clinical studies", "result": "did not show hearing protection"},
      {"measurement": "prevention of ototoxicity", "setting": "[2]; doses equivalent to 6.4 to 12.8 g/m^2 sodium thiosulfate for injection", "result": "prevented ototoxicity"},
      {"measurement": "survival", "setting": "[2]; treatment 6 hours after completion of each CIS infusion", "result": "did not affect survival"},
      {"measurement": "serum sodium levels", "setting": "[3]; doses of STS equivalent to 12.8 g/m^2 sodium thiosulfate for injection", "result": "small, transient increase"},
      {"measurement": "renal or other toxicities", "setting": "[3]; pediatric patients treated with a platinum based chemotherapeutic", "result": "not exacerbate renal or other toxicities"},
      {"measurement": "distribution to the cochlea", "setting": "[4]", "result": "distribute to the cochlea"},
      {"measurement": "biological half-life, range", "setting": "[5]; dependent on dose", "result": "16.5-182 minutes"},
      {"measurement": "biological half-life", "setting": "[5]; following IV administration", "result": 0.65, "unit": "hours"},
      {"measurement": "excreted in the urine unmodified", "setting": "[5]; following IV administration", "result": "Up to 95%"},
      {"measurement": "effect of STS on cytotoxicity of etoposide", "setting": "[6]; immediate or delayed addition of STS, incubation for 72 hours", "result": "no reduction of cytotoxicity"},
      {"measurement": "effect of STS on anti-tumor activity of doxorubicin, carmustine (BCNU), paclitaxel, or methotrexate", "setting": "[6]; similar studies", "result": "no reduction of anti-tumor activity"}
    ]},
    {"compound": "O.O.O.O.O.O=S([O-])([O-])=S.[Na+].[Na+]", "note": "[sodium thiosulfate pentahydrate]", "values": [
      {"measurement": "DVS weight loss upon desorption", "setting": "[7]", "result": 51, "unit": "%"},
      {"measurement": "DVS weight loss upon drying", "setting": "[7]; drying", "result": 27, "unit": "%"},
      {"measurement": "DVS weight gain upon sorption", "setting": "[7]", "result": 81, "unit": "%"}
    ]},
    {"compound": "O=S([O-])([O-])=S.[Na+].[Na+]", "note": "[anhydrous sodium thiosulfate, Sodium thiosulfate anhydrous]", "values": [
      {"measurement": "solubility in alcohol", "setting": "[8]; alcohol", "result": "insoluble"},
      {"measurement": "solubility in water", "setting": "[8]; water", "result": "soluble"},
      {"measurement": "DVS weight change upon equilibration to 0% relative humidity", "setting": "[7]; 0% relative humidity", "result": "minimal weight change"},
      {"measurement": "DVS weight loss upon desorption", "setting": "[7]", "result": 51, "unit": "%"},
      {"measurement": "DVS weight gain upon sorption", "setting": "[7]", "result": 165, "unit": "%"}
    ]}
  ]
}
